In patent US20250281560A1, “METHOD FOR PREVENTING AND/OR TREATING CANCER OR AUTOIMMUNE DISEASE WITH 3,4,2 Prime,3 Prime,4 Prime-PENTAHYDROXY-TRANS-CHALCONE” (priority 2024, published 2025):

What was measured:
[1] = target: T1, human ornithine decarboxylase (ODC) (Homo sapiens, UniProt P11926); assay: Inhibition of the activity of human ornithine decarboxylase by continuous spectrophotometry; assay type: biochemical; conditions: isolated component, FIG. 9
T1 sequence (P11926 1-461): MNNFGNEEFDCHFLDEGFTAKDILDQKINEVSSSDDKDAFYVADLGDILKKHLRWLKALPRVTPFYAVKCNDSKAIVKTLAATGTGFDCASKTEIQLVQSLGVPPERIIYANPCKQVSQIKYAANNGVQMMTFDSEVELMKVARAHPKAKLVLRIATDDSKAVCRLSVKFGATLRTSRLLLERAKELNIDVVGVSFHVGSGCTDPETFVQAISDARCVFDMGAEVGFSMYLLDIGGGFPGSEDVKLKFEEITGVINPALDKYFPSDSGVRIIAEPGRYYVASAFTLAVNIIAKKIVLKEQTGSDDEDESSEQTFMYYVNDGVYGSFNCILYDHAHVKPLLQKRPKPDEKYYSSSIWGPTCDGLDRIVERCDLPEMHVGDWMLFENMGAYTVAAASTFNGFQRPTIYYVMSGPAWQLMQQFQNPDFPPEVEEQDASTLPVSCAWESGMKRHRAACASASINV
Procedure: In this example, inhibition of the activity of human ornithine decarboxylase (ODC) was tested by continuous spectrophotometry. The standard ODC spectrophotometric reaction composition contained 30 mM Tris-HCl (pH 7.8), 10 mM ornithine, and 0.2 mM pyridoxal 5′-phosphate (PLP), together with 12.5 mM phosphoenolpyruvate, 0.4 unit/mL […] of microbes, 4.1 unit/mL malate dehydrogenase (malate dehydrogenase of mammals), and 0.6 mM NADH analog, with the final volume being 0.5 mL. The test mixture was added with a predetermined amount of an Acacia confusa extract sample as an inhibitor and then added with an appropriate amount of ODC to start the reaction. Once the enzyme ODC was added into the reaction mixture, the decrease in absorbance at 405 nm was continuously tracked with Lambda 25 UV-visible spectrophotometer (PerkinElmer Life Sciences). By this test method, 1 mole of CO2 was generated under the test conditions, and 1 mole of NADH analog was oxidized. The unit of the enzyme ODC was defined as the amount of the enzyme that is required to catalyze the generation of 1 mole of NAD per minute. For the calculation, 2410 M^−1cm^−1 was used as the molar absorptivity of the NADH analog. […]

[2] = target: human peptidylarginine deiminase 4 (PAD4) (Homo sapiens, UniProt Q9UM07); assay: Inhibition of the activity of human peptidylarginine deiminase 4 by continuous spectrophotometry; assay type: biochemical; conditions: human PAD4, isolated component, FIG. 10
Procedure: In this example, inhibition of the activity of human peptidylarginine deiminase 4 (PAD4) was tested by continuous spectrophotometry. The standard PAD4 spectrophotometric reaction mixture contained 10 mM BAEE (benzoyl-L-arginine ethyl ester), 10 mM CaCl2), 2.5 mM dithiothreitol (DTT), 8.5 mM α-ketoglutarate (α-KG), 0.22 mM NADH, and 3 U glutamate dehydrogenase (GDH). 100 mM Tris-HCl (pH 7.5) was added into a 1-mL colorimetric tube, followed by a predetermined amount of an Acacia confusa extract sample as an inhibitor. The temperature was controlled at 37° C. An appropriate amount of PAD4 was then added into the test mixture to start the reaction. Once the enzyme PAD4 was added into the reaction mixture, the decrease in absorbance at 340 nm was continuously recorded with a spectrophotometer (Beckman DU 7500). The unit of the enzyme PAD4 was defined as the amount reduced in order to catalyze the conversion of 1 μmol of NADH to NAD^+ per minute. For the calculation of enzyme activity, 6220 M^−1cm^−1 was used as the molar absorptivity of the NADH.
Referring to the content of Example 3 to detect the inhibiting activity of peptidylarginine deiminase 4 (PAD4) of components of the Acacia confusa ethyl acetate extract: Melanoxetin, Okanin and Transilitin, the results are shown in FIG. 10.

human peptidylarginine deiminase 4 (PAD4), sequence (Q9UM07 whole entry): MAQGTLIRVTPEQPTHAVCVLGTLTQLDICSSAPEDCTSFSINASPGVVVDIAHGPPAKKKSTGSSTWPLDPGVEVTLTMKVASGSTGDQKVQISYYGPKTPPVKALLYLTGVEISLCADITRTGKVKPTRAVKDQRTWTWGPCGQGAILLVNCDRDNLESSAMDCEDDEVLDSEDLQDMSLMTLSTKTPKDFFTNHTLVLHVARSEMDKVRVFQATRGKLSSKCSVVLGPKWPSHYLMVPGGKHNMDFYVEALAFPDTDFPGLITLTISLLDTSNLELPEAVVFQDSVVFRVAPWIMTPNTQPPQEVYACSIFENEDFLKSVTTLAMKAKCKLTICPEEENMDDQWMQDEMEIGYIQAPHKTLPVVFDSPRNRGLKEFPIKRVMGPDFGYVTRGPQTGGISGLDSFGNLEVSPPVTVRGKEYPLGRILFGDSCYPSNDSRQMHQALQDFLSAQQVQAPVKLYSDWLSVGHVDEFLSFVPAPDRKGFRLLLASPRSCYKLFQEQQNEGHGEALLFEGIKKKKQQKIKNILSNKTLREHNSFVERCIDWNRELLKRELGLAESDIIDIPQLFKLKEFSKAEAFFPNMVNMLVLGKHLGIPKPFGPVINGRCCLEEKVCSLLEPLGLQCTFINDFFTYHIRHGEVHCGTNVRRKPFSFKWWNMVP

Compound O=C(/C=C/c1ccc(O)c(O)c1)c1ccc(O)c(O)c1O [Okanin, 3,4,2′,3′,4′-pentahydroxy-trans-chalcone] has an IC50 [1] of 8.2 ± 2.1 µM and an IC50 [2] of 89.2 ± 8.3 µM.
